Measured values published in patent publication US20090099195A1 (ASTRAZENECA AB, priority 2007, published 2009).

Molecular target: T1, hP2X3 (human Purinergic P2X receptors subtype 3), clone B (Homo sapiens, UniProt P56373)
T1 sequence (P56373 1-397): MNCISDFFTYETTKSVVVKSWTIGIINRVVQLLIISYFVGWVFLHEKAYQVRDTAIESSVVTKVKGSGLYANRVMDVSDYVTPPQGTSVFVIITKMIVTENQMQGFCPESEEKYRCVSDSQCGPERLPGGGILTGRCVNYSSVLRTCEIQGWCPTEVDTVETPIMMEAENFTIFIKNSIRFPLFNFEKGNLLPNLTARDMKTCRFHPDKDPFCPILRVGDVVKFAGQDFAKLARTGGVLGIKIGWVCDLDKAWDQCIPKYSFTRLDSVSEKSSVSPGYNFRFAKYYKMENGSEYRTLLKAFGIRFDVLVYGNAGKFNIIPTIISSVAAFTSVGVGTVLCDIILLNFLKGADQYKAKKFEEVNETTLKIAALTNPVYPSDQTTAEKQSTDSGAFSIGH
Assay: hP2X3 FLIPR calcium (Fluo-4) antagonist assay, clone B
Details: Human P2X3 FLIPR Clone B IC50 (nM), RLE cells expressing hP2X3 clone B (NM_002559); agonist 500 nM α,β-methylene-ATP

CC(C)N1Cc2c(NC(c3ccccc3)c3ccccc3)nc(NCc3ccccc3)nc2C1=O [Example 84, 4-(Benzhydryl-amino)-2-benzylamino-6-isopropyl-5,6-dihydro-pyrrolo[3,4-d]pyrimidin-7-one]
IC50: 830 nM

CCC(C)N1Cc2c(NC(C)(C)Cc3ccc(F)cc3)nc(N3CCN(C(C)=O)CC3)nc2C1=O (centres unmarked) [Example 312, 2-(4-acetylpiperazin-1-yl)-6-sec-butyl-4-(1-(4-fluorophenyl)-2-methylpropan-2-ylamino)-5H-pyrrolo[3,4-d]pyrimidin-7(6H)-one]
IC50: 160 nM

CC(=O)N1CCN(c2nc3c(c(N4CCCC4c4nc(-c5ccccc5)no4)n2)CN(C(C)C)C3=O)CC1 (centres unmarked) [Example 280, 4-(4-acetylpiperazin-1-yl)-2-[2-(3-phenyl-1,2,4-oxadiazol-5-yl)pyrrolidin-1-yl]-8-propan-2-yl-3,5,8-triazabicyclo[4.3.0]nona-1,3,5-trien-7-one]
IC50: 5100 nM

CC(=O)N1CCCN(c2nc(NC(C)(C)Cc3ccc(Cl)cc3)c3c(n2)C(=O)N(C(C)C)C3)CC1 [Example 65, 2-(4-acetyl-1,4-diazepan-1-yl)-4-{[2-(4-chlorophenyl)-1,1-dimethylethyl]amino}-6-isopropyl-5,6-dihydro-7H-pyrrolo[3,4-d]pyrimidin-7-one]
IC50: 420 nM

CC(=O)N1CCN(c2nc(NCc3nc(C4CCCC4)no3)c3c(n2)C(=O)N(C(C)C)C3)CC1 [Example 276, 4-(4-acetylpiperazin-1-yl)-2-[(3-cyclopentyl-1,2,4-oxadiazol-5-yl)methylamino]-8-propan-2-yl-3,5,8-triazabicyclo[4.3.0]nona-1,3,5-trien-7-one]
IC50: 590 nM

CC(=O)N1CCN(c2nc(NC3CCc4cc(Cl)ccc43)c3c(n2)C(=O)N(C(C)C)C3)CC1 (centres unmarked) [Example 133, 2-(4-Acetylpiperazin-1-yl)-4-(5-chloro-2,3-dihydro-1H-inden-1-ylamino)-6-isopropyl-5H-pyrrolo[3,4-d]pyrimidin-7(6H)-one]
IC50: 4200 nM

CC(=O)N1CCN(c2nc(NCC3(c4ccc(Cl)cc4)CCCC3)c3c(n2)C(=O)N(C(C)C)C3)CC1 [Example 113, 2-(4-acetylpiperazin-1-yl)-4-({[1-(4-chlorophenyl)cyclopentyl]methyl}amino)-6-isopropyl-5,6-dihydro-7H-pyrrolo[3,4-d]pyrimidin-7-one]
IC50: 460 nM

CC(=O)N1CCN(c2nc(NCC3OCCc4ccccc43)c3c(n2)C(=O)N(C(C)C)C3)CC1 (centres unmarked) [Example 205, 2-(4-acetylpiperazin-1-yl)-4-(isochoman-1-ylmethylamino)-6-isopropyl-5H-pyrrolo[3,4-d]pyrimidin-7(6H)-one]
IC50: 5300 nM

CC(C)N1Cc2c(NC(c3ccccc3)c3ccccc3)nc(NCc3cccnc3)nc2C1=O [Example 94, 4-(Benzhydryl-amino)-6-isopropyl-2-[(pyridin-3-ylmethyl)-amino]-5,6-dihydro-pyrrolo[3,4-d]pyrimidin-7-one]
IC50: 250 nM

CC(C)N1Cc2c(NC(c3ccccc3)c3ccc(Cl)cc3)nc(N3CC4CC3CN4C)nc2C1=O (centres unmarked) [Example 20, 4-{[(4-chlorophenyl)(phenyl)methyl]amino}-6-isopropyl-2-(5-methyl-2,5-diazabicyclo[2.2.1]hept-2-yl)-5,6-dihydro-7H-pyrrolo[3,4-d]pyrimidin-7-one]
IC50: 100 nM

CC(=O)N1CCN(c2nc3c(c(N(Cc4ccc(Cl)cc4)CC4CC4)n2)CN(C(C)C)C3=O)CC1 [Example 59, 2-(4-acetylpiperazin-1-yl)-4-[(4-chlorobenzyl)(cyclopropylmethyl)amino]-6-isopropyl-5,6-dihydro-7H-pyrrolo[3,4-d]pyrimidin-7-one]
IC50: 220 nM

COc1cccc(CC2CCCN2c2nc(N3CCN(C(C)=O)CC3)nc3c2CN(C(C)C)C3=O)c1 (centres unmarked) [Example 291, 2-(4-acetylpiperazin-1-yl)-6-isopropyl-4-[2-[(3-methoxyphenyl)methyl]pyrrolidin-1-yl]-5H-pyrrolo[3,4-d]pyrimidin-7-one]
IC50: 490 nM

CC(=O)N1CCN(c2nc(N[C@H](C)c3ccc(OC(CF)CF)cc3)c3c(n2)C(=O)N(C(C)C)C3)CC1 [Example 250, (R)-2-(4-acetylpiperazin-1-yl)-4-(1-(4-(1,3-difluoropropan-2-yloxy)phenyl)ethylamino)-6-isopropyl-5H-pyrrolo[3,4-d]pyrimidin-7(6H)-one]
IC50: 430 nM

CNCCNc1nc(NCC(c2ccccc2)c2ccccc2)c2c(n1)C(=O)N(C(C)C)C2 [Example 109, 4-(2,2-Diphenyl-ethylamino)-6-isopropyl-2-(2-methylamino-ethylamino)-5,6-dihydro-pyrrolo[3,4-d]pyrimidin-7-one]
IC50: 7200 nM

CC(=O)N1CCN(c2nc(NCc3cnc4ccccc4c3)c3c(n2)C(=O)N(C(C)C)C3)C(C)C1 (centres unmarked) [Example 352, 2-(4-Acetyl-2-methylpiperazin-1-yl)-6-isopropyl-4-(quinolin-3-ylmethylamino)-5H-pyrrolo[3,4-d]pyrimidin-7(6M)-one]
IC50: 200 nM

CC(=O)N1CCN(c2nc(NC(C)(C)Cc3cccc(C)c3)c3c(n2)C(=O)N(C(C)C)C3)CC1 [Example 333, 2-(4-acetylpiperazin-1-yl)-6-isopropyl-4-(2-methyl-1-m-tolylpropan-2-ylamino)-5H-pyrrolo[3,4-d]pyrimidin-7(6H)-one]
IC50: 830 nM

CC(C)N1Cc2c(NC(c3ccccc3)c3ccc(Cl)cc3)nc(N3CCOCC3)nc2C1=O (centres unmarked) [Example 77, 4-{[(4-Chloro-phenyl)-phenyl-methyl]-amino}-6-isopropyl-2-morpholin-4-yl-5,6-dihydro-pyrrolo[3,4-d]pyrimidin-7-one]
IC50: 260 nM

CC(C)N1Cc2c(NCc3cnc4ccccc4c3)nc(N3CCN(C(=O)C4CC4)CC3)nc2C1=O [Example 222, 2-[4-(cyclopropylcarbonyl)piperazin-1-yl]-6-(1-methylethyl)-4-[(quinolin-3-ylmethyl)amino]-5,6-dihydro-7H-pyrrolo[3,4-d]pyrimidin-7-one]
IC50: 6300 nM

CC(C)N1Cc2c(NCc3cnc4ccccc4c3)nc(N3CCC(C(N)=O)CC3)nc2C1=O [Example 209, 1-(6-isopropyl-7-oxo-4-(quinolin-3-ylmethylamino)-6,7-dihydro-5H-pyrrolo[3,4-d]pyrimidin-2-yl)piperidine-4-carboxamide]
IC50: 2800 nM

COc1cccc([C@@H](C)Nc2nc(N3CCN(C(C)=O)CC3)nc3c2CN(C(C)C)C3=O)c1 [Example 227, (R)-2-(4-acetylpiperazin-1-yl)-6-isopropyl-4-(1-(3-methoxyphenyl)ethylamino)-5H-pyrrolo[3,4-d]pyrimidin-7(6H)-one]
IC50: 8500 nM

Cc1ccc(C(Nc2nc(N3CCOCC3)nc3c2CN(C(C)C)C3=O)c2ccccc2)cc1 (centres unmarked) [Example 76, 6-isopropyl-2-morpholin-4-yl-[(phenyl-p-tolyl-methyl)-amino]-5,6-dihydro-pyrrolo[3,4-d]pyrimidin-7-one]
IC50: 230 nM

CC(C)N1Cc2c(NCc3cnc4ccccc4c3)nc(N3CCOCC3)nc2C1=O [Example 211, 6-isopropyl-2-morpholino-4-(quinolin-3-ylmethylamino)-5H-pyrrolo[3,4-d]pyrimidin-7(6H)-one]
IC50: 5100 nM

CCOC(=O)C(CNc1nc(N2CCN(C(C)=O)CC2)nc2c1CN(C(C)C)C2=O)c1ccccc1 (centres unmarked) [Example 2, ethyl 3-{[2-(4-acetylpiperazin-1-yl)-6-isopropyl-7-oxo-6,7-dihydro-5H-pyrrolo[3,4-d]pyrimidin-4-yl]amino}-2-phenylpropanoate]
IC50: 1900 nM

CC(=O)N1CCN(c2nc3c(c(N4CCCC4Cc4ccc(F)cc4)n2)CN(C(C)C)C3=O)CC1 (centres unmarked) [Example 129, 2-(4-Acetylpiperazin-1-yl)-4-[2-(4-fluorobenzyl)-pyrrolidin-1-yl]-6-isopropyl-5H-pyrrolo[3,4-d]pyrimidin-7(6H)-one]
IC50: 150 nM

CC(=O)N1CCN(c2nc(NC(C)(C)Cc3ccccc3C)c3c(n2)C(=O)N(C(C)C)C3)CC1 [Example 197, 2-(4-acetylpiperazin-1-yl)-6-isopropyl-4-(2-methyl-1-o-tolylpropan-2-ylamino)-5H-pyrrolo[3,4-d]pyrimidin-7(6H)-one]
IC50: 1900 nM

CC(=O)N1CCN(c2nc3c(c(N4CCCC4Cc4ccccc4Cl)n2)CN(C(C)C)C3=O)CC1 (centres unmarked) [Example 46, 2-(4-acetylpiperazin-1-yl)-4-[2-(2-chlorobenzyl)pyrrolidin-1-yl]-6-isopropyl-5,6-dihydro-7H-pyrrolo[3,4-d]pyrimidin-7-one]
IC50: 2300 nM

CC(=O)N1CCN(c2nc3c(c(N4CCCC4c4ccc5ncccc5c4)n2)CN(C(C)C)C3=O)CC1 (single isomer, unassigned) [Example 284, 4-(4-acetylpiperazin-1-yl)-8-propan-2-yl-2-(2-quinolin-6-ylpyrrolidin-1-yl)-3,5,8-triazabicyclo[4.3.0]nona-1,3,5-trien-7-one]
IC50: 9900 nM

CC(=O)N1CCN(c2nc(Nc3cccc(C(C)C)c3)c3c(n2)C(=O)N(C(C)C)C3)CC1 [Example 105, 2-(4-Acetyl-piperazin-1-yl)-6-isopropyl-4-(3-isopropyl-phenylamino)-5,6-dihydro-pyrrolo[3,4-d]-pyrimidin-7-one]
IC50: 9300 nM

CC(=O)N1CCN(c2nc(NC3CCCc4ccccc43)c3c(n2)C(=O)N(C(C)C)C3)CC1 (centres unmarked) [Example 1, 2-(4-acetylpiperazin-1-yl)-6-isopropyl-4-(1,2,3,4-tetrahydronaphthalen-1-ylamino)-5,6-dihydro-7H-pyrrolo[3,4-d]pyrimidin-7-one]
IC50: 4800 nM
